# Counter-ions that a name gives are not always drawn. Like-named read-outs stand apart in the source and are kept apart here.
# Experiments:
# [1] = Example 1: multiple-dose randomized 3-way crossover PK study of two IV tramadol regimens vs 100 mg oral q6h; settings: human, plasma, plasma; for concentration at 48 h: C48 (T48); for concentration at 1 h: C1 h
# Experimental: A fitted curve was obtained because the second oral peak was not measured in the study. For the modeling portion of the analysis, a validated Phoenix® WinNonlin® program version 6.4 (Certara) was used for PK analysis, simulation, graphics, tables and statistical calculations. […] For purposes of nonlinear regression, the data were weighted as 1/observed. Predicted concentration-time data were calculated based on the individual fitted PK parameters.
# [2] = cited from earlier work
# [3] = tramadol single […] [100 mg] p.o., humans N=12 male; cited from earlier work
# mice and rats = settings: cited from earlier work
# [4] = system: experienced opioid abusers; settings: cited from earlier work
# [5] = Example 4: multiple dose steady-state dose proportionality study, tramadol injection 50/100 mg IV and Ultram tablet 50/100 mg oral q6h; format: in vivo, human; settings: for Cmax, tramadol, Mean ± SD / Cmin, tramadol, Mean ± SD / Tmax, tramadol, Mean ± SD: steady-state, healthy volunteers
# Experimental: The study was an open-label, single-period, randomized, parallel treatment design. Subjects received study drug every 6 hours beginning on the morning of Day 1 and ending on the morning of Day 3. The first dose on Day 1 and the last dose on Day 3 were administered after a minimum 10 hour fast.
# rats and dogs = settings: repeat-dose toxicity; cited from earlier work
# [6] = standard in vitro and in vivo studies; cited from earlier work
# [7] = system: patients undergoing abdominal surgery; settings: cited from earlier work
# [8] = iv, 75 mg, 75 mg IV regimen (h 0, 3, 6, then q6h to h 42), mean
# [9] = po, 100 mg, 100 mg oral q6h to h 42, mean
# [10] = Tramadol dosed as 50 mg IV every 6 hours
# [11] = Tramadol dosed as 100 mg IV every 6 hours
# [12] = Tramadol dosed as Oral (Ultram tablet) every 6 hours
smiles,measurement,setting,value
"COc1cccc([C@]2(O)CCCC[C@H]2CN(C)C)c1 (racemic) [Tramadol, (±)cis-2-[(dimethylamino)methyl]-1-(3-methoxyphenyl) cyclohexanol hydrochloride]",AUC(0-t),"[1]; iv, 75 mg, AUC0-24, 75 mg IV regimen (h 0, 3, 6, then q6h to h 42), mean",9930 ng·h/mL
same,AUC(0-t),"[1]; iv, 75 mg, AUC0-48, 75 mg IV regimen (h 0, 3, 6, then q6h to h 42), mean",19300 ng·h/mL
same,AUC,"[1]; iv, 75 mg, AUC24-48, 75 mg IV regimen (h 0, 3, 6, then q6h to h 42), mean",9930 ng·h/mL
same,AUC,"[1]; iv, 75 mg, AUCtau 1, 75 mg IV regimen (h 0, 3, 6, then q6h to h 42), first dosing interval, mean",1250 ng·h/mL
same,AUC,"[1]; iv, 75 mg, AUCtau n, 75 mg IV regimen (h 0, 3, 6, then q6h to h 42), last dosing interval, mean",3040 ng·h/mL
same,concentration at 3 h,"[1]; iv, 75 mg, C3, 75 mg IV regimen (h 0, 3, 6, then q6h to h 42), mean",237 ng/mL
same,concentration at 48 h,[1]; [8],354 ng/mL
same,concentration at 1 h,[1]; [8],361 ng/mL
same,Cmax,"[1]; iv, 75 mg, Cmax(0-3), 75 mg IV regimen (h 0, 3, 6, then q6h to h 42), first dose, mean",484 ng/mL
same,Cmax,"[1]; iv, 75 mg, Cmax(3-6), 75 mg IV regimen (h 0, 3, 6, then q6h to h 42), mean",756 ng/mL
same,Cmax,"[1]; iv, 75 mg, Cmax(42-48), 75 mg IV regimen (h 0, 3, 6, then q6h to h 42), steady-state, mean",827 ng/mL
same,Cmax,"[1]; iv, 75 mg, Cmax, 75 mg IV regimen (h 0, 3, 6, then q6h to h 42), mean",932 ng/mL
same,Tmax,"[1]; iv, 75 mg, Tmax(0-3), 75 mg IV regimen (h 0, 3, 6, then q6h to h 42), mean",0.5 h
same,Tmax,"[1]; iv, 75 mg, Tmax(3-6), 75 mg IV regimen (h 0, 3, 6, then q6h to h 42), mean",3.31 h
same,Tmax,"[1]; iv, 75 mg, Tmax(42-48), 75 mg IV regimen (h 0, 3, 6, then q6h to h 42), mean",42.4 h
same,Tmax,"[1]; iv, 75 mg, Tmax, 75 mg IV regimen (h 0, 3, 6, then q6h to h 42), mean",15.9 h
same,AUC(0-t),"[1]; po, 100 mg, AUC0-24, 100 mg oral q6h to h 42, mean",7490 ng·h/mL
same,AUC(0-t),"[1]; po, 100 mg, AUC0-48, 100 mg oral q6h to h 42, mean",19100 ng·h/mL
same,AUC,"[1]; po, 100 mg, AUC24-48, 100 mg oral q6h to h 42, mean",11600 ng·h/mL
same,AUC,"[1]; po, 100 mg, AUCtau 1, 100 mg oral q6h to h 42, first dosing interval, mean",1490 ng·h/mL
same,AUC,"[1]; po, 100 mg, AUCtau n, 100 mg oral q6h to h 42, last dosing interval, mean",3480 ng·h/mL
same,concentration at 6 h,"[1]; po, 100 mg, C6, 100 mg oral q6h to h 42, mean",197 ng/mL
same,concentration at 48 h,[1]; [9],497 ng/mL
same,concentration at 1 h,[1]; [9],278 ng/mL
same,Cmax,"[1]; po, 100 mg, Cmax(0-6), 100 mg oral q6h to h 42, first dose, mean",377 ng/mL
same,Cmax,"[1]; po, 100 mg, Cmax(42-48), 100 mg oral q6h to h 42, steady-state, mean",701 ng/mL
same,Cmax,"[1]; po, 100 mg, Cmax, 100 mg oral q6h to h 42, mean",701 ng/mL
same,Tmax,"[1]; po, 100 mg, Tmax(0-6), 100 mg oral q6h to h 42, mean",1.54 h
same,Tmax,"[1]; po, 100 mg, Tmax(42-48), 100 mg oral q6h to h 42, mean",44 h
same,Tmax,"[1]; po, 100 mg, Tmax, 100 mg oral q6h to h 42, mean",44 h
same,absolute bioavailability,"[2]; oral, continuous dosing (Liao et al., 1992)",90-100%
same,increase of elimination half-life,[2]; subjects with renal or hepatic impairment,approximately 2 fold
same,AUC,[3],2177 ± 722 ng·h/mL
same,Cmax,[3],274 ± 75 ng/mL
same,Tmax,[3],1.6 ± 0.5 h
same,t1/2,[3],5.9 ± 0.7 h
same,carcinogenic potential,mice and rats,no evidence of carcinogenic potential
same,seizure,[4]; 200 mg IV administered over 5 minutes,No seizures were observed
same,seizure,[4]; 300 mg IV delivered over 2.5 minutes,seizure was observed
same,seizure,[4]; 700 mg IV administered over 1 minute,seizure was observed
same,ratings of “liking”,"[4]; tramadol 100 and 200 mg IV, morphine 10 and 20 mg IV, over 5 minutes, 10 experienced opioid abusers",neither dose of tramadol increased ratings
same,ratings of “feel drug effect” compared to placebo,"[4]; tramadol 100 and 200 mg IV, morphine 10 and 20 mg IV, over 5 minutes",significantly increased
same,ratings on the ARCI-MBG scale,"[4]; tramadol 100 and 200 mg IV, morphine 20 mg IV",neither dose of tramadol increased ratings
same,"Cmax, tramadol, Mean ± SD",[5]; [10],541 ± 126 ng/mL
same,"Cmin, tramadol, Mean ± SD",[5]; [10],203 ± 50 ng/mL
same,"Tmax, tramadol, Mean ± SD",[5]; [10],22.5 ± 11.3 min
same,"Cmin, tramadol, Mean ± SD",[5]; Tramadol dosed as 50 mg Oral (Ultram tablet) every 6 hours,213 ± 93 ng/mL
same,"Cmax, tramadol, Mean ± SD",[5]; [11],1250 ± 236 ng/mL
same,"Cmin, tramadol, Mean ± SD",[5]; [11],539 ± 172 ng/mL
same,"Tmax, tramadol, Mean ± SD",[5]; [11],24.4 ± 26.5 min
same,"Cmax, tramadol, Mean ± SD",[5]; [12],703 ± 210 ng/mL
same,"Cmin, tramadol, Mean ± SD",[5]; [12],405 ± 151 ng/mL
same,AUC,"[5]; human, plasma, iv, 50 mg",1970 ± 453 ng·h/mL
same,AUC(0-inf),"[5]; human, plasma, iv, 50 mg",4040 ± 1060 ng·h/mL
same,AUC(0-t),"[5]; human, plasma, iv, 50 mg",4010 ± 1050 ng·h/mL
same,AUC,"[5]; human, plasma, iv, 100 mg",4730 ± 1240 ng·h/mL
same,AUC(0-inf),"[5]; human, plasma, iv, 100 mg",11400 ± 4540 ng·h/mL
same,AUC(0-t),"[5]; human, plasma, iv, 100 mg",11200 ± 4270 ng·h/mL
same,AUC(0-inf),"[5]; human, plasma, po, 50 mg",4450 ± 2110 ng·h/mL
same,AUC(0-t),"[5]; human, plasma, po, 50 mg",4360 ± 2030 ng·h/mL
same,Cmax,"[5]; human, plasma, po, 50 mg",~368 ng/mL
same,AUC(0-t),"[5]; human, plasma, po, 100 mg",8660 ± 4260 ng·h/mL
same,doses with behavioral/clinical signs and convulsions,rats and dogs,> 25 mg/kg/day
same,genotoxic potential,[6],no evidence of genotoxic potential
same,patients reporting adverse events,[7]; both groups (infusion and bolus),25%
same,effects on blood pressure or heart rate,[7]; infusion and bolus groups,no significant effects

# Reference: patent US10537521B2 (priority 2016, dated 2020)
